Data reported in patent US8637237B2, “Methods, compositions, and systems for the identification of species-specific or developmental stage-specific insecticides” (The University of North Carolina at Greensboro, priority 2003, dated 2014).

Key:
[1] = target: T1, VP16dEcR/RXR (Drosophila melanogaster, UniProt P34021); test: VP16dEcR with RXR, (EcRE)5-ΔMTV reporter in CHO cells; type: cell-based; design: key to MurA (inducibility): (+) designates a change in transcriptional level that exceeds 2.5-fold; (++) indicates a response at a lower dosage than other EcR forms
T1 construct: expressed in transfected cells; host or cells: CHO
T1 sequence (P34021 252-878 limits assumed): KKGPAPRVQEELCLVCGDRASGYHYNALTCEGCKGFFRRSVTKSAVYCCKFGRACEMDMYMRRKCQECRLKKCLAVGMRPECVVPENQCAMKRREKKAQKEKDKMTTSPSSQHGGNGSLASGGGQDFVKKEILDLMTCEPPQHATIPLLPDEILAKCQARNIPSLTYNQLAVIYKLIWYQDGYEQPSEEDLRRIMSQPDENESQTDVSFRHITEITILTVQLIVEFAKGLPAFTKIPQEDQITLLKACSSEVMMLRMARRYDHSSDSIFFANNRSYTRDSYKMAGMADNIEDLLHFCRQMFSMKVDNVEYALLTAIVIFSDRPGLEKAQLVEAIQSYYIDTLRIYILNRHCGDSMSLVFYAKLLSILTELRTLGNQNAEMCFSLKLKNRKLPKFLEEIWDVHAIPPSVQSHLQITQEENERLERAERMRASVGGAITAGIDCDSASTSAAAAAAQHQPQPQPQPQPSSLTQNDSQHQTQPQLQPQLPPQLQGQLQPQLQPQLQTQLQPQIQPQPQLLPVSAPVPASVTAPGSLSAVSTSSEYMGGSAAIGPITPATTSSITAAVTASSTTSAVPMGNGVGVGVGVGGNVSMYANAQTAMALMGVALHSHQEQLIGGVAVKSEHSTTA
T1 sequence (P28700 1-467 partner): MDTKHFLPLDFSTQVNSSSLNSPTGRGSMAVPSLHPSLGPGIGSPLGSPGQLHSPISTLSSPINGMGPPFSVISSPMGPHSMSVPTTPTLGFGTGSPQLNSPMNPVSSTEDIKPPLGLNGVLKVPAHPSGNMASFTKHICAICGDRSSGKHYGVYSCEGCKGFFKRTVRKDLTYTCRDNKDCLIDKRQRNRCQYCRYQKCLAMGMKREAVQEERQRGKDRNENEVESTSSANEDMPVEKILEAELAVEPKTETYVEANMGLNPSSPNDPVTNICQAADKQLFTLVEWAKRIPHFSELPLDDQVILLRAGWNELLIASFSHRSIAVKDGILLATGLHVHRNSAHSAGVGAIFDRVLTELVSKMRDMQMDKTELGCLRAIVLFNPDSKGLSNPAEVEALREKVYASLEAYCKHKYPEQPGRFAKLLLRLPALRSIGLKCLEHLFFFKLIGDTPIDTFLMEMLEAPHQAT
Method: These experiments employed a mammalian cell culture system using Chinese hamster ovary cells (CHO) to evaluate the transcriptional function of Drosophila melanogaster EcR and USP using methods described previously (U.S. Patent Application Publication No: 2005/0049230; Henrich et al, 2003). Cells were seeded in 6-well polypropylene culture plates (Falcon) with 10^5 cells per well on the day prior to transfection. Transfection was subsequently performed using either calcium phosphate (Kitareewan et al., 1996, Mol. Biol. Cell, 7:1153-1196) or a GenePorter reagent (Gene Therapy Systems, Inc; San Diego, Calif.) following manufacturer's protocols. Each well received 1.25 μg of (EcRE)5-ΔMTV-CAT (five copies of the hsp27 EcRE inserted into an mouse mammary tumor virus (MTV) promoter upstream of the chloramphenicol acetyltransferase (CAT) gene) or (EcRE)5-ΔMTV-LUC (the same promoter attached to firefly luciferase), 1.25 μg of pCH111 (SV40 early promoter linked to the β-galactosidase gene) to normalize CAT activity, and 0.25 μg of each expression plasmid (EcR, FXR, RXR, USP) that was tested. The cells were incubated with plasmid DNA for seven hours and then washed with 1×PBS. Muristerone A (murA; Alexis Biochemicals) or 20-hydroxyecdysone (20E; Sigma) dissolved in ethanol to a concentration of 10 mM was diluted as necessary to the final assay concentration (FAC) in 2 ml of fresh incubation medium that was then applied to the cells. Similarly, JHIII (Sigma) was dissolved in dimethyl sulfoxide (DMSO) to a concentration of 80 μM and diluted into the incubation medium to its final assay concentration (20, 40, 80, 160 μM). […] A corresponding volume of ethanol and DMSO were added to control cells for all experiments. […] Both β-galactosidase and CAT reporter activity were measured based on previously used methods (Kitareewan et al, 1996). […]
(§1) Transcriptional activity, measured as ^14C-chloramphenicol counts (for measuring CAT activity) or relative luciferase activity (RLU) was quantified for each cell lysate. […]

[2] = target: T2, EcRB1/RXR (Drosophila melanogaster, UniProt P34021); test: EcRB1 isoform with RXR, reporter in CHO cells; type: cell-based
T2 construct: The plasmid encodes a version of EcRB1 that includes 878 amino acids, and deletes the F domain; expressed in transfected cells; host or cells: CHO
T2 sequence (P34021 whole entry, canonical isoform): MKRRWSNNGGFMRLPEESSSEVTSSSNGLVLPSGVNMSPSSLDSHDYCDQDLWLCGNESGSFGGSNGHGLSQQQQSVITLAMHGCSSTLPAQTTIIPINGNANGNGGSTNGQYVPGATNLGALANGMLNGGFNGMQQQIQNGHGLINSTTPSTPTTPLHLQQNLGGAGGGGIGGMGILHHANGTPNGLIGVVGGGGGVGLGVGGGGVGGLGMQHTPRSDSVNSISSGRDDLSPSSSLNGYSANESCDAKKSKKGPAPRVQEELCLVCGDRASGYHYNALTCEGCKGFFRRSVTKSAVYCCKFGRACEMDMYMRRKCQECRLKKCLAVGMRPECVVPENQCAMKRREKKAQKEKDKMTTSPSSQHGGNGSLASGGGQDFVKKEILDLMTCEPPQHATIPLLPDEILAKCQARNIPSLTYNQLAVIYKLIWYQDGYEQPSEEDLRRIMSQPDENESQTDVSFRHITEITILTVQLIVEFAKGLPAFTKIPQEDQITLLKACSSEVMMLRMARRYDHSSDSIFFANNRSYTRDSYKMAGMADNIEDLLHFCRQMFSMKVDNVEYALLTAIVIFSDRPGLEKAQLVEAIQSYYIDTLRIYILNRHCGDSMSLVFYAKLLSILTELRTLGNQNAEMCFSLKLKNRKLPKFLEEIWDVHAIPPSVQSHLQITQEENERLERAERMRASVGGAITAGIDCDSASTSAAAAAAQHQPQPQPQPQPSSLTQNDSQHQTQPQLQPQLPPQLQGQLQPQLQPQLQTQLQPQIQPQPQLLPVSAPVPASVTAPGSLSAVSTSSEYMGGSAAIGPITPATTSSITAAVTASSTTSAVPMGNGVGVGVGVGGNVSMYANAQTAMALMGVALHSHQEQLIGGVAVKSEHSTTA
Method: (§2) These experiments employed a mammalian cell culture system using Chinese hamster ovary cells (CHO) to evaluate the transcriptional function of Drosophila melanogaster EcR and USP using methods described previously (U.S. Patent Application Publication No: 2005/0049230; Henrich et al, 2003). Cells were seeded in 6-well polypropylene culture plates (Falcon) with 10^5 cells per well on the day prior to transfection. Transfection was subsequently performed using either calcium phosphate (Kitareewan et al., 1996, Mol. Biol. Cell, 7:1153-1196) or a GenePorter reagent (Gene Therapy Systems, Inc; San Diego, Calif.) following manufacturer's protocols. Each well received 1.25 μg of (EcRE)5-ΔMTV-CAT (five copies of the hsp27 EcRE inserted into an mouse mammary tumor virus (MTV) promoter upstream of the chloramphenicol acetyltransferase (CAT) gene) or (EcRE)5-ΔMTV-LUC (the same promoter attached to firefly luciferase), 1.25 μg of pCH111 (SV40 early promoter linked to the β-galactosidase gene) to normalize CAT activity, and 0.25 μg of each expression plasmid (EcR, FXR, RXR, USP) that was tested. […] Both β-galactosidase and CAT reporter activity were measured based on previously used methods (Kitareewan et al, 1996). […]
as §1

[3] = target: T3, VP16dEcR/USP (Drosophila melanogaster, UniProt P34021); test: VP16dEcR with USP (VP16CfUSP), reporter in CHO cells; type: cell-based
T3 construct: expressed in transfected cells; host or cells: CHO
T3 sequence (O76202 212-462 partner limits assumed, one chain of several): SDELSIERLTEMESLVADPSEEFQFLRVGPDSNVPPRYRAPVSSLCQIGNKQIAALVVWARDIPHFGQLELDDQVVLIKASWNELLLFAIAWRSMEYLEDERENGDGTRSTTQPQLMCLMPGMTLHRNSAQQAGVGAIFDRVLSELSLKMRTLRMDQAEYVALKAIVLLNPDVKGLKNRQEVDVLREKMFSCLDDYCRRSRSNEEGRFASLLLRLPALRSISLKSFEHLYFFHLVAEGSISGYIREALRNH
Method: as §2, §1

[4] = test system: insect; conditions: from Schneiderman and Gilbert, Science 143; cited from earlier work
[5] = target: T4, GGEc (Drosophila melanogaster, UniProt P34021); test: GGEc chimera (GR amino terminus and DBD, EcR LBD) with RXR in CHO cells; type: cell-based; conditions: 20 μM juvocimene; 0.2 μM muristerone A
T4 construct: were replaced by EcR LBD amino acids (EcR amino acids 329 to 878); expressed in transfected cells; host or cells: CHO
T4 sequence (P34021 329-878): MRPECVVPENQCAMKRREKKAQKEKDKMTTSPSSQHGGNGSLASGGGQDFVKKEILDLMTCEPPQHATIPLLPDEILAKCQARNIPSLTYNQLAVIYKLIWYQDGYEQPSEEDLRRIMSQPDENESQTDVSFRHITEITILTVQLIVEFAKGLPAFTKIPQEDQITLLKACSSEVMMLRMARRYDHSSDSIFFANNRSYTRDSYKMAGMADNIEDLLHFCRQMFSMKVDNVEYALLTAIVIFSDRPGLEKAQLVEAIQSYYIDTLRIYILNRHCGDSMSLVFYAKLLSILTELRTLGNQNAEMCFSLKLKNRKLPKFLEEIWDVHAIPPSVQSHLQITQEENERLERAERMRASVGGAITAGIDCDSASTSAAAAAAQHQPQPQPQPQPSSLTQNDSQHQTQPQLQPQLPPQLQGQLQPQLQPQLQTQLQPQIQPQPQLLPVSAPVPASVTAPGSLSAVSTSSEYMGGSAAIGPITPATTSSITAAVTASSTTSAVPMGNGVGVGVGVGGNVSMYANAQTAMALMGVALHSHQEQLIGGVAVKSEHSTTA
Source text: For these experiments, the luciferase reporter construct was used. To obviate influences from other transcription factors, results were normalized using a reporter plasmid from which CAT expression is driven by a minimal promoter consisting of dimerized GREs linked upstream of a 13 base pair TATA box DNA element derived from the adenovirus E1B gene.
In this experiment, GGEc and RXR were transfected into CHO cells with either a CAT or a luciferase reporter plasmid containing 1.5 kilobase pairs of the glucocorticoid-inducible mouse mammary tumor virus (MTV) promoter.
In these experiments, CHO cells were transfected with a GGEc-expressing plasmid, a mouse RXRα expression plasmid, and an adenovirus E1b TATA-(GRE)2-CAT reporter plasmid. The GGEc plasmid was eliminated from DNA mixtures added to cells transfected in parallel. CAT activities were measured from lysates of cells from triplicate wells treated with ethanol vehicle, juvocimene (20 μM), muristerone A (0.2 μM), or both.
In these experiments, CHO cells were transfected with DNAs as described above but ubiquinone-2 (10 μM) was substituted for juvocimene.

With `CC(C)(O)CC[C@@H](O)[C@](C)(O)[C@H]1CC[C@@]2(O)C3=CC(=O)[C@@H]4C[C@@H](O)[C@@H](O)C[C@]4(C)[C@H]3CC[C@]12C` [20E, 20-hydroxyecdysone] the “20E (inducibility)” value ([1]; 10 μM 20E) was “+ ((+) designates a change in transcriptional level that exceeds 2.5-fold)”.

With `COC(=O)/C=C(\C)CC/C=C(\C)CC[C@H]1OC1(C)C` [JHIII, juvenile hormone III] the “MurA + JHIII (JHIII potentiation)” value ([2]; 0.1 μM murA + 80 μM JHIII) was “+ ((+) indicates observed potentiation that exceeds 2-fold above the levels observed with ecdysteroid alone)”, the “MurA + JHIII (JHIII potentiation)” value ([3]; 0.1 μM murA + 80 μM JHIII) was “+ ((+) indicates observed potentiation that exceeds 2-fold above the levels observed with ecdysteroid alone)” and the “MurA + JHIII (JHIII potentiation)” value ([1]; 0.1 μM murA + 80 μM JHIII) was “+ ((+) indicates observed potentiation that exceeds 2-fold above the levels observed with ecdysteroid alone)”.

In the case of `CC(C)=CCCC(C)=CCCC(C)=CC(=O)O` [farnesoic acid], the “JH ACTIVITY (units/g)” value [4] is given as 7.8 units/g.

With `CC(C)CC[C@@H](O)[C@](C)(O)[C@H]1CC[C@@]2(O)C3=CC(=O)[C@]4(O)C[C@@H](O)[C@@H](O)C[C@]4(C)[C@H]3[C@H](O)C[C@]12C` [murA, muristerone A] the “MurA (inducibility)” value ([2]; 0.1 μM murA) was “+ ((+) designates a change in transcriptional level that exceeds 2.5-fold)”, the “MurA (inducibility)” value ([3]; 0.1 μM murA) was “+ ((+) designates a change in transcriptional level that exceeds 2.5-fold)” and the “MurA (inducibility)” value ([1]; 0.1 μM murA) was “++”.

With juvocimene the “GGEc activity increase over MUR” value [5] was 7 times.
